Data reported in ChEMBL document CHEMBL1201862, “PubChem BioAssay data set” (2004).
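Values below derive from 48-hour exposures of cells grown in 96-well plates, with endpoints linearly interpolated between the two concentrations bracketing the appropriate inhibition level. The concentration for 50% growth inhibition is given as GI50.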 The source made the active and inactive calls. Cut-off read from the data, not from the text of the source: active = GI50 up to about 1.1 µM and inactive = higher.

What was measured:
Experiment in all cases: NCI tumour cell line growth inhibition, 48 h
M19-MEL = tested on: M19-MEL
XF498 = tested on: XF498
ACHN = tested on: ACHN
SN12C = tested on: SN12C
SF-268 = tested on: SF-268
NCI-H23 = tested on: NCI-H23
NCI-H522 = tested on: NCI-H522
IGROV-1 = tested on: IGROV-1
SNB-75 = tested on: SNB-75
SK-MEL-5 = tested on: SK-MEL-5
HOP-92 = tested on: HOP-92
HCC 2998 = tested on: HCC 2998
TK-10 = tested on: TK-10
KM12 = tested on: KM12
SNB-78 = tested on: SNB-78
NCI-H226 = tested on: NCI-H226
SK-MEL-2 = tested on: SK-MEL-2
DMS-114 = tested on: DMS-114
LXFL 529 = tested on: LXFL 529
SNB-19 = tested on: SNB-19
A498 = tested on: A498
U-251 = tested on: U-251
UACC-62 = tested on: UACC-62
RXF 393 = tested on: RXF 393
OVCAR-5 = tested on: OVCAR-5
HOP-18 = tested on: HOP-18
LOX IMVI = tested on: LOX IMVI
SF-295 = tested on: SF-295
UACC-257 = tested on: UACC-257
RPMI-8226 = tested on: RPMI-8226
UO-31 = tested on: UO-31
OVCAR-4 = tested on: OVCAR-4
MOLT-4 = tested on: MOLT-4
786-0 = tested on: 786-0
COLO 205 = tested on: COLO 205
SK-OV-3 = tested on: SK-OV-3
HT-29 = tested on: HT-29
OVCAR-3 = tested on: OVCAR-3
CCRF-CEM = tested on: CCRF-CEM
OVCAR-8 = tested on: OVCAR-8
K562 = tested on: K562
HOP-62 = tested on: HOP-62
DLD-1 = tested on: DLD-1
HL-60 = tested on: HL-60
NCI-H460 = tested on: NCI-H460
SF-539 = tested on: SF-539
DMS-273 = tested on: DMS-273
A549 = tested on: A549
M14 = tested on: M14
HCT-116 = tested on: HCT-116
SK-MEL-28 = tested on: SK-MEL-28
Malme-3M = tested on: Malme-3M
KM-20L2 = tested on: KM-20L2
HCT-15 = tested on: HCT-15
CAKI-1 = tested on: CAKI-1
EKVX = tested on: EKVX
SW-620 = tested on: SW-620
SR = tested on: SR

Structure (SMILES): CCCCCCCCCCCCCCCCCCOCC1(COP(=O)([O-])OCC[N+](C)(C)C)CCCO1 (stereo not given)
- GI50 (M19-MEL): 2.99 µM (inactive)
- GI50 (XF498): 7.64 µM (inactive)
- GI50 (ACHN): 6.37 µM (inactive)
- GI50 (SN12C): 2.2 µM (inactive)
- GI50 (SF-268): 5.87 µM (inactive)
- GI50 (NCI-H23): 16.8 µM (inactive)
- GI50 (NCI-H522): 1.96 µM (inactive)
- GI50 (IGROV-1): 2.49 µM (inactive)
- GI50 (SNB-75): 5.56 µM (inactive)
- GI50 (SK-MEL-5): 14.4 µM (inactive)
- GI50 (HOP-92): 3.27 µM (inactive)
- GI50 (HCC 2998): 1.89 µM (inactive)
- GI50 (TK-10): 1.6 µM (inactive)
- GI50 (KM12): 1.39 µM (inactive)
- GI50 (SNB-78): 8.17 µM (inactive)
- GI50 (NCI-H226): 5.01 µM (inactive)
- GI50 (SK-MEL-2): 10.9 µM (inactive)
- GI50 (DMS-114): 5.16 µM (inactive)
- GI50 (LXFL 529): 4.92 µM (inactive)
- GI50 (SNB-19): 3.7 µM (inactive)
- GI50 (A498): 3.46 µM (inactive)
- GI50 (U-251): 2.33 µM (inactive)
- GI50 (UACC-62): 8.75 µM (inactive)
- GI50 (RXF 393): 0.393 µM (active)
- GI50 (OVCAR-5): 12.4 µM (inactive)
- GI50 (HOP-18): 2.82 µM (inactive)
- GI50 (LOX IMVI): 6.43 µM (inactive)
- GI50 (SF-295): 2.34 µM (inactive)
- GI50 (UACC-257): 13.9 µM (inactive)
- GI50 (RPMI-8226): 2.79 µM (inactive)
- GI50 (UO-31): 10.2 µM (inactive)
- GI50 (OVCAR-4): 2.83 µM (inactive)
- GI50 (MOLT-4): 2.2 µM (inactive)
- GI50 (786-0): 3.73 µM (inactive)
- GI50 (COLO 205): 1.87 µM (inactive)
- GI50 (SK-OV-3): 14.4 µM (inactive)
- GI50 (HT-29): 4.41 µM (inactive)
- GI50 (OVCAR-3): 4.22 µM (inactive)
- GI50 (CCRF-CEM): 2.89 µM (inactive)
- GI50 (OVCAR-8): 11.2 µM (inactive)
- GI50 (K562): 16.4 µM (inactive)
- GI50 (HOP-62): 2.99 µM (inactive)
- GI50 (DLD-1): 3.65 µM (inactive)
- GI50 (HL-60): 2.18 µM (inactive)
- GI50 (NCI-H460): 1.57 µM (inactive)
- GI50 (SF-539): 15.8 µM (inactive)
- GI50 (DMS-273): 1.75 µM (inactive)
- GI50 (A549): 7.6 µM (inactive)
- GI50 (M14): 3.14 µM (inactive)
- GI50 (HCT-116): 10.1 µM (inactive)
- GI50 (SK-MEL-28): 18.2 µM (inactive)
- GI50 (Malme-3M): 13.3 µM (inactive)
- GI50 (KM-20L2): 3.26 µM (inactive)

Structure (SMILES): CCCCN(CCCC)C(=O)C(=O)CC(=O)c1ccc(Br)cc1
- GI50 (M19-MEL): > 100 µM (inactive)
- GI50 (XF498): > 100 µM (inactive)
- GI50 (ACHN): > 100 µM (inactive)
- GI50 (SN12C): > 100 µM (inactive)
- GI50 (SF-268): > 100 µM (inactive)
- GI50 (NCI-H23): > 100 µM (inactive)
- GI50 (NCI-H522): > 100 µM (inactive)
- GI50 (IGROV-1): > 100 µM (inactive)
- GI50 (HCT-15): > 100 µM
- GI50 (SK-MEL-5): > 100 µM (inactive)
- GI50 (HOP-92): > 100 µM (inactive)
- GI50 (HCC 2998): > 100 µM (inactive)
- GI50 (TK-10): > 100 µM (inactive)
- GI50 (KM12): > 100 µM (inactive)
- GI50 (SNB-78): > 100 µM (inactive)
- GI50 (NCI-H226): > 100 µM (inactive)
- GI50 (SK-MEL-2): > 100 µM (inactive)
- GI50 (DMS-114): > 100 µM (inactive)
- GI50 (LXFL 529): > 100 µM (inactive)
- GI50 (SNB-19): > 100 µM (inactive)
- GI50 (CAKI-1): > 100 µM (inactive)
- GI50 (A498): > 100 µM (inactive)
- GI50 (EKVX): > 100 µM (inactive)
- GI50 (U-251): > 100 µM (inactive)
- GI50 (UACC-62): > 100 µM (inactive)
- GI50 (OVCAR-5): > 100 µM (inactive)
- GI50 (HOP-18): > 100 µM (inactive)
- GI50 (LOX IMVI): > 100 µM (inactive)
- GI50 (SF-295): > 100 µM (inactive)
- GI50 (UACC-257): > 100 µM (inactive)
- GI50 (RPMI-8226): > 100 µM (inactive)
- GI50 (UO-31): > 100 µM (inactive)
- GI50 (OVCAR-4): > 100 µM (inactive)
- GI50 (MOLT-4): > 100 µM (inactive)
- GI50 (786-0): > 100 µM (inactive)
- GI50 (COLO 205): > 100 µM (inactive)
- GI50 (SK-OV-3): > 100 µM (inactive)
- GI50 (HT-29): > 100 µM (inactive)
- GI50 (OVCAR-3): > 100 µM (inactive)
- GI50 (CCRF-CEM): > 100 µM (inactive)
- GI50 (OVCAR-8): > 100 µM (inactive)
- GI50 (SW-620): > 100 µM (inactive)
- GI50 (K562): > 100 µM (inactive)
- GI50 (HOP-62): > 100 µM (inactive)
- GI50 (DLD-1): > 100 µM (inactive)
- GI50 (HL-60): > 100 µM (inactive)
- GI50 (NCI-H460): > 100 µM (inactive)
- GI50 (SF-539): > 100 µM (inactive)
- GI50 (DMS-273): > 100 µM (inactive)
- GI50 (A549): > 100 µM (inactive)
- GI50 (M14): > 100 µM (inactive)
- GI50 (HCT-116): > 100 µM (inactive)
- GI50 (Malme-3M): > 100 µM (inactive)
- GI50 (KM-20L2): > 100 µM (inactive)

Structure (SMILES): O=c1[nH]ccc(CNC23CC4CC(CC(C4)C2)C3)c1O
- GI50 (M19-MEL): > 100 µM (inactive)
- GI50 (XF498): > 100 µM (inactive)
- GI50 (ACHN): 93.5 µM (inactive)
- GI50 (SN12C): 45.8 µM (inactive)
- GI50 (NCI-H23): > 100 µM (inactive)
- GI50 (NCI-H522): 24.8 µM (inactive)
- GI50 (IGROV-1): > 100 µM (inactive)
- GI50 (SNB-75): > 100 µM (inactive)
- GI50 (HCT-15): 41.8 µM
- GI50 (SK-MEL-5): > 100 µM (inactive)
- GI50 (HCC 2998): > 100 µM (inactive)
- GI50 (TK-10): > 100 µM (inactive)
- GI50 (KM12): > 100 µM (inactive)
- GI50 (SNB-78): > 100 µM (inactive)
- GI50 (NCI-H226): > 100 µM (inactive)
- GI50 (SK-MEL-2): > 100 µM (inactive)
- GI50 (LXFL 529): > 100 µM (inactive)
- GI50 (SNB-19): > 100 µM (inactive)
- GI50 (CAKI-1): 59.7 µM (inactive)
- GI50 (A498): > 100 µM (inactive)
- GI50 (EKVX): 80.4 µM (inactive)
- GI50 (U-251): > 100 µM (inactive)
- GI50 (UACC-62): > 100 µM (inactive)
- GI50 (RXF 393): 48.4 µM (inactive)
- GI50 (OVCAR-5): > 100 µM (inactive)
- GI50 (HOP-18): > 100 µM (inactive)
- GI50 (SF-295): 78.2 µM (inactive)
- GI50 (UACC-257): > 100 µM (inactive)
- GI50 (RPMI-8226): > 100 µM (inactive)
- GI50 (UO-31): 88.3 µM (inactive)
- GI50 (OVCAR-4): > 100 µM (inactive)
- GI50 (MOLT-4): 55.7 µM (inactive)
- GI50 (786-0): > 100 µM (inactive)
- GI50 (COLO 205): > 100 µM (inactive)
- GI50 (SK-OV-3): > 100 µM (inactive)
- GI50 (HT-29): > 100 µM (inactive)
- GI50 (OVCAR-3): > 100 µM (inactive)
- GI50 (CCRF-CEM): 41.5 µM (inactive)
- GI50 (OVCAR-8): > 100 µM (inactive)
- GI50 (SW-620): > 100 µM (inactive)
- GI50 (K562): 88.3 µM (inactive)
- GI50 (HOP-62): > 100 µM (inactive)
- GI50 (SR): 45.2 µM (inactive)
- GI50 (DLD-1): > 100 µM (inactive)
- GI50 (HL-60): 41.3 µM (inactive)
- GI50 (NCI-H460): 79.3 µM (inactive)
- GI50 (SF-539): > 100 µM (inactive)
- GI50 (DMS-273): > 100 µM (inactive)
- GI50 (A549): > 100 µM (inactive)
- GI50 (M14): > 100 µM (inactive)
- GI50 (HCT-116): > 100 µM (inactive)
- GI50 (Malme-3M): > 100 µM (inactive)
- GI50 (KM-20L2): > 100 µM (inactive)
